Where two headings read alike, the source gives them in different places.
Key:
[1] = tested on: Orlando insecticide-susceptible strain of Ae. aegypti (female mosquitoes); assay: Glass tube spatial repellency assay; assay type: in vivo, Aedes aegypti; design: 1 h EC50-OR (repellency): unit not given here; settings: for repellency EC50 (+TFA): applied as mixture with TFA (50 μg/cm^2); for repellency EC50 (+TFA) / repellency EC50 / 1 h EC50-OR (repellency): 1 hr; for repellency EC50 / 1 h EC50-OR (repellency): compound alone; for synergist ratio SR (EC50 compound alone/EC50 compound+TFA): repellency, TFA 50 μg/cm^2 as mixture; for 15 min repellency ratio / 30 min repellency ratio / 1 hr repellency ratio: horizontal tube, 0.5=0% repellency, 0=100% repellency; for 1 h EC50-OR (repellency): OR strain; for mortality in repellency screening: 100 μg/cm^2, 1 hr exposure
Protocol: (§1) The following assay was conducted according to the procedures of Jiang et al., 2019 (Jiang S., Yang L, and Bloomquist J (2019) High-throughput screening method for evaluating spatial repellency and vapor toxicity to mosquitoes. Med. Vet. Entomol.). For assessing behavioral repellency (FIG. 1), sixteen female Aedes aegypti mosquitoes were transferred to a glass tube (12.5 cm long, 2.5 cm outer diameter) with the ends covered with netting. Metofluthrin, bifenthrin, permethrin, pyrethrum, transfluthrin, deltamethrin, esfenvalerate, metofluthrin acid, bifenthrin acid, phenothrin acid, transchryanthemic acid, transfluthrin acid, deltamethrin acid, and fenvalerate acid were each dissolved in 1 mL of acetone and serial dilutions ranging from 30-0.01 μg/ml were made. Circular filter papers (5 cm^2) were saturated with 50 μL of each concentration and allowed 10 min for solvent evaporation. The filter papers were then placed in clear conical polypropylene caps and fixed to the end of the glass tubes. The netting prevented mosquito contact with the filter paper. Tubes were then aligned with a mark denoting the midline and the proportion of mosquitoes on the chemically treated side was scored at 15, 30, and 60 min. At the end of the test, the tube was placed in a cage and the ability of the mosquitoes to fly out of the tube was assessed for 30 min. […] This post-test evaluated whether any non-responding mosquitoes (not repelled) was due to intoxication or disorientation from the test chemical. For vapor toxicity, the assay was identical, except that mosquitoes were kept in the tube for 24 hr without the post-test at 1 hr, and the mortality was recorded at 24 hr.

[2] = tested on: pyrethroid-resistant Puerto Rico (PR) strain of Ae. aegypti; assay: Glass tube spatial repellency assay, resistant strain; assay type: in vivo, Aedes aegypti; design: 1 h EC50-PR (repellency): unit not given here; settings: compound alone; for RR (PR EC50/OR EC50): repellency resistance ratio; for 1 h EC50-PR (repellency): PR strain
Protocol: as §1
EC50 values were calculated from non-linear regression to a four parameter logistic equation (Prism, GraphPad Software, San Diego, Calif.) of the curves shown in FIG. 4. RR=resistance ratio. NA=data not yet available.

female Ae. aegypti = assay: Human arm bite protection assay; assay type: in vivo, Aedes aegypti
Protocol: A human bite protection assay was performed according to see if the repellency observed in glass tubes extended to bite protection. The assay was run in accordance with that of Tsikolia et al. (Tsikolia M, Bernier UR, Coy M, Chalaire K, Becnel J, Agramonte N, Tabanca N, Wedge D, Clark G, Linthicum K, Swale D, and J. R. Bloomquist J (2013) Insecticidal and fungicidal properties of novel trifluoromethylphenyl amides. Pestic. Biochem. Physiol. 107, 138-147). Treated cloth patches were worn by human volunteers and the number of blood fed mosquitoes was determined after 1 min spent in a cage with 500 (±10%) female Ae. aegypti. Minimum Effective Dosage (MED in mg/cm^2) is the minimum amount required to prevent 99% of bites in three human volunteers (UF IRB #201602334). Synergist ratio (SR)=MED chemical alone/MED chemical+TFA (0.047 mg/cm^2) or TCA (0.094 mg/cm^2).

[3] = tested on: insecticide-susceptible Aedes aegypti (Orlando strain) females; assay: Glass tube vapor toxicity assay (24 hr mortality); settings: for 24 hr mort (%): horizontal tube; for mortality at 100 µg/cm2: Aedes aegypti; for LC50 (24 h vapor toxicity): pyrethroid alone
Protocol: as §1
Synergism ratio (SR)=LC50 pyrethroid/LC50 pyrethroid+EO.

[4] = tested on: pyrethroid-resistant Puerto Rico strain of Ae. aegypti; assay: Glass tube vapor toxicity assay, resistant strain; assay type: in vivo, Aedes aegypti; settings: for resistance ratio RR, vapor toxicity: pyrethroid alone, Puerto Rico vs Orlando
Text: The netting prevented mosquito contact with the filter paper.
The vapor toxicity of metofluthrin alone and in combination with citronella oil (CO) on susceptible Orlando and pyrethroid-resistant Puerto Rico strains of Ae. aegypti was investigated. The results are provided in Table 10 and in FIGS. 26 and 27. […] Synergism ratio (SR)=LC50 metofluthrin/LC50 metofluthrin+citronella. […] Resistance ratio (RR)=LC50 metofluthrin[…] on Puerto Rico/LC50 metofluthrin on Orlando.
Next, the vapor toxicity of empenthrin applied to two strains of Aedes aegypti, the pyrethroid-susceptible Orlando and pyrethroid-resistant Puerto Rico strain, was investigated. Empenthrin was applied alone and in combination with citronella oil (100 μg/cm^2, a nontoxic exposure). The RR for empenthrin alone was 5.7-fold.

[5] = tested on: OR (susceptible) strain of Ae. aegypti antenna; assay: Electroantennography (EAG) responses, OR strain; design: species or system Aedes aegypti; settings: 10 mg odorant, air puff
Text: (§2) Electroantennography (EAG) responses of OR (susceptible) and PR (resistant) strains of Ae. Aegypti were then obtained for TF, TFA, and TCA (FIGS. 10A and 10B). In these experiments, an air puff stimulus with odorant was blown over an antenna suspended between 2 electrodes and represented the summed electrical response of all the chemo-receptive hairs. All compounds gave responses, with TF the largest (FIG. 10A).

[6] = tested on: PR (resistant) strain of Ae. aegypti antenna; assay: Electroantennography (EAG) responses, PR strain; design: species or system Aedes aegypti; settings: 10 mg odorant, air puff
Text: as §2

Row | Compound | RR (PR EC50/OR EC50) [2] | 15 min repellency ratio ([1]; 10 μg/cm^2) | 30 min repellency ratio ([1]; 10 μg/cm^2) | 1 hr repellency ratio ([1]; 10 μg/cm^2) | 15 min repellency ratio ([1]; 100 μg/cm^2) | 30 min repellency ratio ([1]; 100 μg/cm^2) | 1 hr repellency ratio ([1]; 100 μg/cm^2) | 24 hr mort (%) ([3]; 10 μg/cm^2) | 24 hr mort (%) ([3]; 100 μg/cm^2) | also measured
1 | CC(C)=C[C@@H]1[C@@H](C(=O)O)C1(C)C (relative stereo) [TCA, 1-R-trans-chrysanthemic acid] | 1.9 | – | – | – | – | – | – | – | – | repellency ([1]; TCA alone at 10 μg/cm^2): 25%; repellency EC50 (+TFA) [1]: 1.3 μg/cm^2; repellency EC50 [1]: 20 μg/cm^2; synergist ratio SR (EC50 compound alone/EC50 compound+TFA) [1]: 15; MED values Female 10 (female Ae. aegypti; as E30, volunteer one): 0.375 mg/cm^2; MED values Female 9 (female Ae. aegypti; as E30, volunteer two): 0.187 mg/cm^2; MED Mean (female Ae. aegypti; mean of three human volunteers): 0.312 mg/cm^2; MED values Male 4 (female Ae. aegypti; minimum amount preventing 99% of bites, treated cloth patch, 1 min in cage, mixtures with TFA 0.047 or TCA 0.094 mg/cm^2): 0.375 mg/cm^2
2 | O=Cc1cccc(O)c1 [3-hydroxybenzaldehyde] | – | 0.56 | 0.53 | 0.56 | 0.41 | 0.41 | 0.56 | 21.9 | 15.6 | –
3 | CC(C)(C)c1cccc(C=O)c1 [3-tert-butylbenzaldehyde] | – | 0.31 | 0.25 | 0.31 | – | – | – | 6.3 | 81.3 | mortality at 100 µg/cm2 ([3]; 0.25 h, read-out: 15 min % mortality): 96.9%; mortality at 100 µg/cm2 ([3]; 0.5 h, read-out: 30 min % mortality): 100%; mortality at 100 µg/cm2 ([3]; 1 h, read-out: 1 hr % mortality): 100%
4 | C=Cc1cccc(C=O)c1 [3-vinylbenzaldehyde] | – | 0.50 | 0.50 | 0.31 | 0.19 | 0.25 | 0.19 | 100.0 | 6.3 | –
5 | CC1(C)C(C=C(Cl)C(F)(F)F)C1C(=O)O (stereo not drawn) [BFA, bifenthrin acid] | 0.8 | – | – | – | – | – | – | – | – | 1 h EC50-OR (repellency) [1]: 14; 1 h EC50-PR (repellency) [2]: 11
6 | CC(C)[C@H](C(=O)O)c1ccc(Cl)cc1 [FVA, fenvalerate acid] | 1.7 | – | – | – | – | – | – | – | – | –
7 | CC=CC1C(C(=O)O)C1(C)C (stereo not drawn) [MFA, metofluthrin acid] | 1.3 | – | – | – | – | – | – | – | – | 1 h EC50-OR (repellency) [1]: 14; 1 h EC50-PR (repellency) [2]: 18
8 | C/C=C/C1C(C(=O)OCc2c(F)c(F)c(COC)c(F)c2F)C1(C)C (stereo not drawn) [Metofluthrin, reference compound] | 60 | – | – | – | – | – | – | – | – | mortality in repellency screening [1]: significant mortality; synergism ratio of vapor toxicity, +citronella ([3]; in vivo): 7.6; LC50 (24 h vapor toxicity) [3]: 0.84 μg/cm^2; LC50 +citronella ([3]; with citronella, 24 h): 0.11 μg/cm^2; resistance ratio RR, vapor toxicity, +citronella oil ([4]; LC50 metofluthrin+CO on Puerto Rico/LC50 metofluthrin on Orlando): 7.3; resistance ratio RR, vapor toxicity [4]: 50.7
9 | CC(C)=CC1C(C(=O)O)C1(C)C (stereo not drawn) [PhenA, phenothrin acid] | 0.8 | – | – | – | – | – | – | – | – | –
10 | CC1(C)[C@H](C=C(Cl)Cl)[C@H]1C(=O)OCc1c(F)c(F)cc(F)c1F [Transfluthrin, reference compound] | 4.7 | – | – | – | – | – | – | – | – | mortality in repellency screening [1]: significant mortality; repellency EC50 (+TFA) [1]: 0.11 μg/cm^2; synergism of repellency with citronella ([1]; citronella at its EC20 (20 μg/cm^2)): not; repellency EC50 [1]: 0.5 μg/cm^2; synergist ratio SR (EC50 compound alone/EC50 compound+TFA) [1]: about 5; synergism ratio of vapor toxicity, +TFA ([3]; TFA 50 μg/cm^2): 2.3; LC50 (24 h vapor toxicity) [3]: 0.16 μg/cm^2; LC50 +TFA ([3]; with TFA (50 μg/cm^2), 24 h): 0.07 μg/cm^2; EAG response [5]: largest; EAG response in PR strain relative to OR [6]: reduced
11 | O=Cc1cccc(-c2ccccc2)c1 [biphenyl-3-carboxaldehyde] | – | 0.44 | 0.38 | 0.38 | 0.44 | 0.31 | 0.19 | 50.0 | 6.3 | –
12 | C#CC(OC(=O)C1C(C=C(C)C)C1(C)C)/C(C)=C/CC (stereo not drawn) [empenthrin] | – | – | – | – | – | – | – | – | – | effect of citronella oil on resistance to vapor toxicity ([4]; citronella oil 100 μg/cm^2, Puerto Rico strain): reversed resistance; resistance ratio RR, vapor toxicity [4]: 5.7
13 | O=Cc1cccc(C=O)c1 [isophthalaldehdye] | – | 0.41 | 0.41 | 0.41 | 0.03 | 0.09 | 0.06 | 40.6 | 87.5 | –
14 | trifluoromethoxybenzaldehyde | – | 0.38 | 0.38 | 0.44 | 0.31 | 0.31 | 0.50 | 6.3 | 0.0 | –
15 | α, α, α-trifluoromethyltolualdehyde | – | 0.38 | 0.44 | 0.31 | 0.38 | 0.50 | 0.63 | 0.0 | 0.0 | –

Source: patent US20220304307A1, “SYNERGISTIC MIXTURES FOR ARTHROPOD TOXICITY AND REPELLENCY” (University of Florida Research Foundation, Incorporated, priority 2019, published 2022)
